Measured values reported in ChEMBL document CHEMBL5113478, “7-Azaindole, 2,7-diazaindole, and 1H-pyrazole as core structures for novel anticancer agents with potential chemosensitizing properties” (Eur J Med Chem, 2022).

Assays:
Format in all cases: functional
A2780 [1] = assay: Antiproliferative activity against human A2780 cells assessed as […] cell proliferation at 10 uM incubated for 48 hrs by WST-1 assay relative to control
SAOS-2 [2] = assay: Antiproliferative activity against human SAOS-2 cells assessed as […] cell proliferation at 10 uM incubated for 48 hrs by WST-1 assay relative to control
SAOS-2 [3] = assay: Antiproliferative activity against human SAOS-2 cells assessed as […] cell proliferation at 10 uM incubated for 48 hrs in presence of 15 uM of CDDP by WST-1 assay relative to control
Jurkat [4] = assay: Antiproliferative activity against human Jurkat cells assessed as […] cell proliferation at 10 uM incubated for 48 hrs by WST-1 assay relative to control
A2780 [5] = assay: Antiproliferative activity against human A2780 cells assessed as […] cell proliferation at 10 uM incubated for 48 hrs in presence of 2 uM of CDDP by WST-1 assay relative to control
MCF7 [6] = assay: Antiproliferative activity against human MCF7 cells assessed as […] cell proliferation at 10 uM incubated for 48 hrs in presence of 10 uM of CDDP by WST-1 assay relative to control
Jurkat [7] = assay: Antiproliferative activity against human Jurkat cells assessed as […] cell proliferation at 10 uM incubated for 48 hrs in presence of 2 uM of CDDP by WST-1 assay relative to control
HeLa [8] = assay: Antiproliferative activity against human HeLa cells assessed as […] cell proliferation at 10 uM incubated for 48 hrs in presence of 15 uM of CDDP by WST-1 assay relative to control
PANC-1 [9] = assay: Antiproliferative activity against human PANC-1 cells assessed as […] cell proliferation at 10 uM incubated for 48 hrs by WST-1 assay relative to control
MOLT-4 [10] = assay: Antiproliferative activity against human MOLT-4 cells assessed as […] cell proliferation at 10 uM incubated for 48 hrs by WST-1 assay relative to control
HT-29 [11] = assay: Antiproliferative activity against human HT-29 cells assessed as […] cell proliferation at 10 uM incubated for 48 hrs in presence of 15 uM of CDDP by WST-1 assay relative to control
A549 [12] = assay: Antiproliferative activity against human A549 cells assessed as […] cell proliferation at 10 uM incubated for 48 hrs in presence of 15 uM of CDDP by WST-1 assay relative to control
MCF7 [13] = assay: Antiproliferative activity against human MCF7 cells assessed as […] cell proliferation at 10 uM incubated for 48 hrs by WST-1 assay relative to control
A549 [14] = assay: Antiproliferative activity against human A549 cells assessed as […] cell proliferation at 10 uM incubated for 48 hrs by WST-1 assay relative to control
PANC-1 [15] = assay: Antiproliferative activity against human PANC-1 cells assessed as […] cell proliferation at 10 uM incubated for 48 hrs in presence of 15 uM of CDDP by WST-1 assay relative to control
MOLT-4 [16] = assay: Antiproliferative activity against human MOLT-4 cells assessed as […] cell proliferation at 10 uM incubated for 48 hrs in presence of 2 uM of CDDP by WST-1 assay relative to control
HeLa [17] = assay: Antiproliferative activity against human HeLa cells assessed as […] cell proliferation at 10 uM incubated for 48 hrs by WST-1 assay relative to control
HT-29 [18] = assay: Antiproliferative activity against human HT-29 cells assessed as […] cell proliferation at 10 uM incubated for 48 hrs by WST-1 assay relative to control

Compound | Activity (A2780 [1]) [%] | Activity (SAOS-2 [2]) [%] | Activity (SAOS-2 [3]) [%] | Activity (Jurkat [4]) [%] | Activity (A2780 [5]) [%] | Activity (MCF7 [6]) [%] | Activity (Jurkat [7]) [%] | Activity (HeLa [8]) [%] | Activity (PANC-1 [9]) [%] | Activity (MOLT-4 [10]) [%] | Activity (HT-29 [11]) [%] | Activity (A549 [12]) [%] | Activity (MCF7 [13]) [%] | Activity (A549 [14]) [%] | Activity (PANC-1 [15]) [%] | Activity (MOLT-4 [16]) [%] | Activity (HeLa [17]) [%] | Cell viability relative to control (HT-29 [18]) [%]
CC(C)S(=O)(=O)c1ccc(-c2cc(C(=O)Nc3ccc(N(C)C)cc3)n[nH]2)cc1 | 93 | 93 | 65 | 93 | 65 | 65 | 65 | 65 | 93 | 93 | 65 | 65 | 93 | 93 | 65 | 65 | 93 | 93
CC(C)S(=O)(=O)c1ccc(-c2cc(-c3nc(-c4ccccc4)no3)n[nH]2)cc1 | 101 | 101 | 62 | 101 | 62 | 62 | 62 | 62 | 101 | 101 | 62 | 62 | 101 | 101 | 62 | 62 | 101 | 101
CCN1CCN(C2CCN(C(=O)c3c[nH]c4ncc(-c5ccc(S(=O)(=O)C(C)C)cc5)cc34)CC2)CC1 | 100 | 100 | 62 | 100 | 62 | 62 | 62 | 62 | 100 | 100 | 62 | 62 | 100 | 100 | 62 | 62 | 100 | 100
CS(=O)(=O)c1ccc(-c2cnc3[nH]cc(C(=O)N4CCC(c5ccccc5)CC4)c3c2)cc1 | 49 | 49 | 44 | 49 | 44 | 44 | 44 | 44 | 49 | 49 | 44 | 44 | 49 | 49 | 44 | 44 | 49 | 49
CS(=O)(=O)c1ccc(-c2cnc3[nH]nc(C(=O)N4CCC(c5ccccc5)CC4)c3c2)cc1 | 92 | 92 | 71 | 92 | 71 | 71 | 71 | 71 | 92 | 92 | 71 | 71 | 92 | 92 | 71 | 71 | 92 | 92
CS(=O)(=O)c1ccc(-c2cnc3[nH]cc(C(=O)NCc4ccccc4)c3c2)cc1 | 89 | 89 | 64 | 89 | 64 | 64 | 64 | 64 | 89 | 89 | 64 | 64 | 89 | 89 | 64 | 64 | 89 | 89
CC(C)S(=O)(=O)c1ccc(-c2cnc3[nH]cc(C(=O)N4CCc5ccccc5C4)c3c2)cc1 | 85 | 85 | 66 | 85 | 66 | 66 | 66 | 66 | 85 | 85 | 66 | 66 | 85 | 85 | 66 | 66 | 85 | 85
CC(C)S(=O)(=O)c1ccc(-c2cc(C(=O)N3CCC(c4ccccc4)CC3)n[nH]2)cc1 | 84 | 84 | 62 | 84 | 62 | 62 | 62 | 62 | 84 | 84 | 62 | 62 | 84 | 84 | 62 | 62 | 84 | 84
CC(C)S(=O)(=O)c1ccc(-c2cc(-c3nnc(-c4ccccc4)o3)n[nH]2)cc1 | 98 | 98 | 64 | 98 | 64 | 64 | 64 | 64 | 98 | 98 | 64 | 64 | 98 | 98 | 64 | 64 | 98 | 98
CS(=O)(=O)c1ccc(-c2cnc(N)c(C(=O)Nc3ccccc3)n2)cc1 | 66 | 66 | 16 | 66 | 16 | 16 | 16 | 16 | 66 | 66 | 16 | 16 | 66 | 66 | 16 | 16 | 66 | 66
CCN(CC)c1ccc(CNC(=O)c2cc(-c3ccc(S(=O)(=O)C(C)C)cc3)[nH]n2)cc1 | 78 | 78 | 62 | 78 | 62 | 62 | 62 | 62 | 78 | 78 | 62 | 62 | 78 | 78 | 62 | 62 | 78 | 78
